According to PubChem BioAssay (NCI):
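Each compound was tested at five concentrations against cells in 96-well plates for 48 hours. At the TGI there is no net growth.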

How the values were obtained:
Experiment in all cases: DTP human tumour cell line panel, 48 h
786-0 renal = test system: 786-0 renal
A498 renal = test system: A498 renal
DU-145 prostate = test system: DU-145 prostate
EKVX NSCLC = test system: EKVX NSCLC
HCT-116 colon = test system: HCT-116 colon
HCT-15 colon = test system: HCT-15 colon
HOP-62 NSCLC = test system: HOP-62 NSCLC
IGROV1 ovarian = test system: IGROV1 ovarian
K-562 leukemia = test system: K-562 leukemia
LOX IMVI melanoma = test system: LOX IMVI melanoma
M14 melanoma = test system: M14 melanoma
NCI-H226 lung = test system: NCI-H226 lung
OVCAR-3 ovarian = test system: OVCAR-3 ovarian
OVCAR-4 ovarian = test system: OVCAR-4 ovarian
SK-MEL-28 melanoma = test system: SK-MEL-28 melanoma
SK-OV-3 ovarian = test system: SK-OV-3 ovarian
SR leukemia = test system: SR leukemia
UACC-257 melanoma = test system: UACC-257 melanoma
UO-31 renal = test system: UO-31 renal
LXFL 529 NSCLC = test system: LXFL 529 NSCLC

O=Cc1ccc2c(c1)CC1(C2)Cc2ccc3c(c2C1)CCC3 (centres undefined)
TGI (786-0 renal): 28.3 µM | TGI (A498 renal): > 61 µM | TGI (DU-145 prostate): > 69 µM | TGI (EKVX NSCLC): > 59.2 µM | TGI (HCT-116 colon): 19.1 µM | TGI (HCT-15 colon): 34.4 µM | TGI (HOP-62 NSCLC): 27.7 µM | TGI (IGROV1 ovarian): 41.3 µM | TGI (K-562 leukemia): 25.6 µM | TGI (LOX IMVI melanoma): 15.9 µM | TGI (M14 melanoma): 21.3 µM | TGI (NCI-H226 lung): 37.8 µM | TGI (OVCAR-3 ovarian): 19.5 µM | TGI (OVCAR-4 ovarian): 16.9 µM | TGI (SK-MEL-28 melanoma): 29.5 µM | TGI (SK-OV-3 ovarian): 45.1 µM | TGI (SR leukemia): 18.3 µM | TGI (UACC-257 melanoma): 33 µM | TGI (UO-31 renal): 25 µM

O=C1N=c2ccccc2=C1c1c(O)[nH]c2ccccc12
TGI (786-0 renal): 21.6 µM | TGI (A498 renal): 64.3 µM | TGI (DU-145 prostate): 54.6 µM | TGI (EKVX NSCLC): 71.6 µM | TGI (HCT-116 colon): 88.3 µM | TGI (HCT-15 colon): 19.6 µM | TGI (HOP-62 NSCLC): > 100 µM | TGI (IGROV1 ovarian): > 100 µM | TGI (K-562 leukemia): > 100 µM | TGI (LOX IMVI melanoma): 49.9 µM | TGI (M14 melanoma): > 100 µM | TGI (NCI-H226 lung): > 100 µM | TGI (OVCAR-3 ovarian): 41.1 µM | TGI (OVCAR-4 ovarian): 29.9 µM | TGI (SK-MEL-28 melanoma): > 100 µM | TGI (SK-OV-3 ovarian): > 100 µM | TGI (SR leukemia): 17.8 µM | TGI (UACC-257 melanoma): > 100 µM | TGI (UO-31 renal): 30.5 µM

CCOC(=O)C1(Cc2ccc3c(c2)CCC3)Cc2cc3c(cc2C1)CCC3
TGI (786-0 renal): > 100 µM | TGI (A498 renal): > 100 µM | TGI (DU-145 prostate): > 100 µM | TGI (EKVX NSCLC): > 100 µM | TGI (HCT-116 colon): > 100 µM | TGI (HCT-15 colon): > 100 µM | TGI (HOP-62 NSCLC): > 100 µM | TGI (IGROV1 ovarian): > 100 µM | TGI (K-562 leukemia): > 100 µM | TGI (LOX IMVI melanoma): 82.4 µM | TGI (M14 melanoma): 55.9 µM | TGI (NCI-H226 lung): 81.9 µM | TGI (OVCAR-3 ovarian): > 100 µM | TGI (OVCAR-4 ovarian): 87.9 µM | TGI (SK-MEL-28 melanoma): > 100 µM | TGI (SK-OV-3 ovarian): 88.2 µM | TGI (SR leukemia): > 100 µM | TGI (UACC-257 melanoma): 86.2 µM | TGI (UO-31 renal): > 100 µM

NS(=O)(=O)c1nn2c(Br)c(-c3ccccc3)nc2s1
TGI (786-0 renal): 9.34 µM | TGI (A498 renal): 31 µM | TGI (DU-145 prostate): 8.5 µM | TGI (EKVX NSCLC): 31.9 µM | TGI (HCT-116 colon): 7.3 µM | TGI (HCT-15 colon): 11.6 µM | TGI (HOP-62 NSCLC): 29.5 µM | TGI (IGROV1 ovarian): 23.3 µM | TGI (K-562 leukemia): 21.2 µM | TGI (LOX IMVI melanoma): 4.49 µM | TGI (M14 melanoma): 13.8 µM | TGI (NCI-H226 lung): 4.6 µM | TGI (OVCAR-3 ovarian): 15.9 µM | TGI (OVCAR-4 ovarian): 24.4 µM | TGI (SK-MEL-28 melanoma): 23.1 µM | TGI (SK-OV-3 ovarian): 28.4 µM | TGI (SR leukemia): > 33.8 µM | TGI (UACC-257 melanoma): 15.5 µM | TGI (UO-31 renal): 15.5 µM

CNC(=S)N(C)C(=S)Nn1c(=O)c(C)nn(C)c1=S
TGI (786-0 renal): > 100 µM | TGI (A498 renal): > 100 µM | TGI (EKVX NSCLC): > 100 µM | TGI (HCT-116 colon): > 100 µM | TGI (HCT-15 colon): > 100 µM | TGI (HOP-62 NSCLC): > 100 µM | TGI (IGROV1 ovarian): > 100 µM | TGI (K-562 leukemia): > 100 µM | TGI (LOX IMVI melanoma): > 100 µM | TGI (LXFL 529 NSCLC): > 100 µM | TGI (M14 melanoma): > 100 µM | TGI (NCI-H226 lung): > 100 µM | TGI (OVCAR-4 ovarian): > 100 µM | TGI (SK-MEL-28 melanoma): > 100 µM | TGI (SR leukemia): > 100 µM | TGI (UACC-257 melanoma): > 100 µM

CC1(CCCO)CCCCCC(C)(CCCO)C1=O (centres undefined)
TGI (786-0 renal): > 100 µM | TGI (A498 renal): > 100 µM | TGI (DU-145 prostate): > 100 µM | TGI (EKVX NSCLC): > 100 µM | TGI (HCT-116 colon): > 100 µM | TGI (HCT-15 colon): > 100 µM | TGI (HOP-62 NSCLC): > 100 µM | TGI (IGROV1 ovarian): > 100 µM | TGI (K-562 leukemia): > 100 µM | TGI (LOX IMVI melanoma): > 100 µM | TGI (M14 melanoma): > 100 µM | TGI (NCI-H226 lung): > 100 µM | TGI (OVCAR-3 ovarian): > 100 µM | TGI (OVCAR-4 ovarian): > 100 µM | TGI (SK-MEL-28 melanoma): > 100 µM | TGI (SK-OV-3 ovarian): > 100 µM | TGI (SR leukemia): > 100 µM | TGI (UACC-257 melanoma): > 100 µM | TGI (UO-31 renal): > 100 µM

O=[N+]([O-])c1cc2oc(COc3ccccc3)nc2cc1Cl
TGI (786-0 renal): > 100 µM | TGI (A498 renal): 53 µM | TGI (DU-145 prostate): > 100 µM | TGI (EKVX NSCLC): 73.6 µM | TGI (HCT-116 colon): 44.9 µM | TGI (HCT-15 colon): 43.3 µM | TGI (HOP-62 NSCLC): 50.6 µM | TGI (IGROV1 ovarian): > 100 µM | TGI (K-562 leukemia): > 100 µM | TGI (LOX IMVI melanoma): 35 µM | TGI (M14 melanoma): 43.5 µM | TGI (NCI-H226 lung): 51.3 µM | TGI (OVCAR-3 ovarian): 48.2 µM | TGI (OVCAR-4 ovarian): > 100 µM | TGI (SK-MEL-28 melanoma): > 100 µM | TGI (SK-OV-3 ovarian): 59.9 µM | TGI (SR leukemia): > 100 µM | TGI (UACC-257 melanoma): 63.4 µM | TGI (UO-31 renal): 66 µM

c1ccc2sc(C3(N4CCCC4)CCCCCC3)cc2c1
TGI (786-0 renal): 27.7 µM | TGI (A498 renal): 32.5 µM | TGI (DU-145 prostate): > 100 µM | TGI (EKVX NSCLC): 33 µM | TGI (HCT-116 colon): 27.7 µM | TGI (HCT-15 colon): 56.5 µM | TGI (HOP-62 NSCLC): 36.1 µM | TGI (IGROV1 ovarian): 46.2 µM | TGI (K-562 leukemia): 38.5 µM | TGI (LOX IMVI melanoma): 33.2 µM | TGI (M14 melanoma): 31 µM | TGI (NCI-H226 lung): 40.3 µM | TGI (OVCAR-3 ovarian): 27.6 µM | TGI (OVCAR-4 ovarian): 31.8 µM | TGI (SK-MEL-28 melanoma): 37.9 µM | TGI (SK-OV-3 ovarian): 35 µM | TGI (SR leukemia): 44.1 µM | TGI (UACC-257 melanoma): 31 µM | TGI (UO-31 renal): 26 µM
